Laboratory results: patent publication US10688084B2 (priority 2016, dated 2020)
Read-outs that look alike come from different tables or passages of the source.

What was measured:
[1] = tested on: Wistar rats; assay type: in vivo
Experimental: In the study of analgesic properties of the formula I compound, were taken female and male Wistar rats aged 6-7 weeks with a body mass of 180-220 g. The number of animals in each group was 10.
[…] inflammation was modeled in rats by subplantar administration of 0.1 ml of a 1% solution of carrageenin (a sulfated polysaccharide from Irish sea moss) into the right hind paw. The substance was administered intragastrically using a gastric probe.
Inflammatory hyperalgesia (increased pain sensitivity of inflamed tissues in rats) was caused by carrageenin and was assessed by decrease of the pain sensitivity threshold—PST (by PST difference) to mechanical irritation (squeezing) of the paw tissue of the animal before the introduction of carrageenin and 3 hours after it. The measurement was performed on the inflamed paw. Used analgesimeter Ugo Basile S.R.L. (Italy) provides a gradual increased afterload on the rat's inflamed paw until a pain reaction appears (assessed by squeaking of animal or withdrawing the paw). The analyte was administered 2 h after carrageenin administration. […] An increase in the pain response threshold under the influence of the substances under study was expressed in an increase in the force of compression of the limb and characterized the intensity of the analgesic effect of the preparation. After the experiment, animals were euthanized by carbon dioxide inhalation method.
The introduction to rats was carried out in the amount of no more than 1 ml/100 g. The concentration of the resulting solution was 5 mg/ml.
(§1) To prepare a dose of 20 mg/kg, 40 ml of solution with a concentration of 5 mg/ml (50 mg/kg) were taken, transferred to a 100 ml measuring flask with accuracy class A, adjusted to 100 ml with 0.5% water solution of Tween-80 and the suspension was dispersed to a homogeneous consistency using a dispersant.
To prepare a dose of 10 mg/kg, 20 ml of solution with a concentration of 5 mg/ml (50 mg/kg) were taken, transferred to a 100 ml measuring flask with accuracy class A, adjusted to 100 ml with 0.5% aqueous solution of Tween-80 and the suspension was stirred to a homogeneous consistency with a magnetic stirrer MR Hei-Standard (Heidolph, Germany).
as §1, with “5” for “20”, “[…]” for “40”, “stirred” for “dispersed”, “with” for “using”, “magnetic stirrer.” for “dispersant.”

[2] = tested on: Wistar rats; conditions: for Number of animals in the group/number of dead animals / LD10 / LD16 / LD84: rat; for Number of animals in the group/number of dead animals: 14 days; for LD10 / LD16 / LD84: intragastric
Experimental: The experiment was performed according to the fixed dose method in Wistar rats of both sexes, 6 animals per group. […] The solvent used was a 0.5% Tween-80 solution (Tween 80—polyoxyethylene, a derivative of sorbitan and oleic acid, a commercially available polymer), which was prepared by dissolving 0.5 g of Tween-80 in 100 ml of distilled water.
The introduction was carried out to animals deprived of food (for a period of not less than 8 hours) with free access to water. The volume of administration was calculated individually for each animal, based on the body mass recorded immediately before the introduction of the substance. Access to the feed was renewed an hour after the introduction. Animals were observed individually after administration for 30 minutes, then at least once per hour for 4 hours, then daily once a day for 14 days. Body mass was recorded immediately before the administration of the preparation to calculate the volume of administration, then once every two days. If the animal died during the study, the time of death was determined and documented as accurately as possible. The animal was weighed and dissected as soon as possible. Dying animals were weighed, euthanized and dissected. Animals were euthanized by inhalation of carbon dioxide. Toxic doses LD10, LD16, LD50 and LD84 were calculated using probit analysis with IBM SPSS Statistics software.
At the end of the experiment, euthanasia and pathomorphological dissection of control and experimental animals were performed.

COc1ccc2cc([C@H](C)C(=O)OCc3cnc(C)c(OC(=O)[C@@H](C)c4ccc5cc(OC)ccc5c4)c3COC(=O)[C@@H](C)c3ccc4cc(OC)ccc4c3)ccc2c1 [Compound of formula I, 3-((S)-2-(6-methoxynaphth-2-yl)propanoiloxy)-4,5-bis (((S)-2-(6-methoxinaphtht-2-yl)propanoiloxy)methyl)-2-methylpyridinium (S)-2-(6-methoxynaphth-2-yl) propanoate]
Analgesic effect, total/analgesic effect ([1]; females, 5 mg/kg): 10/9 | Paw volume 0 hours ([1]; females, 5 mg/kg): 3.9 ± 1.4 | Paw volume 3 hours ([1]; females, 5 mg/kg): 7.2 ± 3.2 | Analgesic effect, % ([1]; females, 5 mg/kg, control = 100.0): 282.0 ± 125.9% | Analgesic effect, total/analgesic effect ([1]; females, 10 mg/kg): 10/8 | Paw volume 0 hours ([1]; females, 10 mg/kg): 4.3 ± 2.2 | Paw volume 3 hours ([1]; females, 10 mg/kg): 10.5 ± 7.2 | Analgesic effect, % ([1]; females, 10 mg/kg, control = 100.0): 408.2 ± 279.3% | Analgesic effect, total/analgesic effect ([1]; females, 20 mg/kg): 10/9 | Paw volume 0 hours ([1]; females, 20 mg/kg): 4.6 ± 3.3 | Paw volume 3 hours ([1]; females, 20 mg/kg): 9.1 ± 7.4 | Analgesic effect, % ([1]; females, 20 mg/kg, control = 100.0): 353.5 ± 289.7% | Analgesic effect, total/analgesic effect ([1]; females, 50 mg/kg): 10/7 | Paw volume 0 hours ([1]; females, 50 mg/kg): 8.9 ± 5.7 | Paw volume 3 hours ([1]; females, 50 mg/kg): 12.4 ± 6.5 | Analgesic effect, % ([1]; females, 50 mg/kg, control = 100.0): 484.4 ± 251.8% | Dose at which a pronounced anesthetic effect is exhibited ([1]; intragastric): 5 mg/kg | Analgesic effect, total/analgesic effect ([1]; males, 5 mg/kg): 10/7 | Analgesic effect, total/analgesic effect ([1]; males, 10 mg/kg): 10/10 | Analgesic effect, total/analgesic effect ([1]; males, 20 mg/kg): 10/9 | Analgesic effect, total/analgesic effect ([1]; males, 50 mg/kg): 10/8 | Analgesic effect, % ([1]; rat, in vivo, 5 mg/kg): 259.9 ± 229.7% | Paw volume 0 hours ([1]; rat, in vivo, 5 mg/kg): 4.4 ± 2.7 | Paw volume 3 hours ([1]; rat, in vivo, 5 mg/kg): 5.5 ± 2.5 | Analgesic effect, % ([1]; rat, in vivo, 10 mg/kg): 453.7 ± 159.9% | Paw volume 0 hours ([1]; rat, in vivo, 10 mg/kg): 4.2 ± 2.4 | Paw volume 3 hours ([1]; rat, in vivo, 10 mg/kg): 12.0 ± 4.6 | Analgesic effect, % ([1]; rat, in vivo, 20 mg/kg): 418.1 ± 215.7% | Paw volume 0 hours ([1]; rat, in vivo, 20 mg/kg): 6.4 ± 5.7 | Paw volume 3 hours ([1]; rat, in vivo, 20 mg/kg): 12.0 ± 6.2 | Analgesic effect, % ([1]; rat, in vivo, 50 mg/kg): 367.9 ± 220.1% | Paw volume 0 hours ([1]; rat, in vivo, 50 mg/kg): 3.4 ± 2.3 | Paw volume 3 hours ([1]; rat, in vivo, 50 mg/kg): 10.6 ± 6.3 | Dead animals ([2]; 5000 mg/kg intragastric, female, three days later): 1 rat | Clinical observation after administration ([2]; 5000 mg/kg intragastric, symptom disappeared in 20-30 minutes): slight inhibition of the activity of the animal | Body mass increase ([2]; 5000 mg/kg, 2 days after start): 1-4% | Body mass increase ([2]; 5000 mg/kg, 4 days after start): 2-6% | Body mass increase ([2]; 5000 mg/kg, eighth day): 2-8% | Autopsy findings ([2]; 5000 mg/kg, end of experiment): No changes were observed | Body mass increase ([2]; 5000 mg/kg, end of the experiment): 5-13% | Hazard class (GOST 12.1.007-76) ([2]; intragastric administration): 4th hazard class | Number of animals in the group/number of dead animals ([2]; females, 5000 mg/kg intragastric): 6/1 | LD10 ([2]; females): >5000 | LD16 ([2]; females): >5000 | LD84 ([2]; females): >5000 | Number of animals in the group/number of dead animals ([2]; males, 5000 mg/kg intragastric): 6/0 | LD10 ([2]; males): >5000 | LD16 ([2]; males): >5000 | LD84 ([2]; males): >5000
